# Test results taken from patent US20040127395A1 (priority 2002, published 2004).
# Columns and labels:
# [1] = system: ovalbumin-sensitized mice; test: Airway hyper-responsiveness to methacholine in ovalbumin-sensitized mice (whole body plethysmography); format: in vivo, mouse; conditions: any of the first three doses, FIG. 7
# Procedure: Mice (n=8 per group) were sensitized by intraperitoneal injection of ovalbumin/alum on Days 0 and 14. On each of Days 21 through 24, mice were pretreated for 15 min with vehicle or with (5-chloro-1H-benzoimidazol-2-yl)-(4-methyl-piperazin-1-yl)-methanone prior to a 20 min challenge with PBS or ovalbumin.
# In one experiment, (5-chloro-1H-benzoimidazol-2-yl)-(4-methyl-piperazin-1-yl)-methanone was administered p.o. at 5, 20, or 50 mg/kg. In a second experiment, (5-chloro-1H-benzoimidazol-2-yl)-(4-methyl-piperazin-1-yl)-methanone was administered p.o. at 0.5, 2, or 5 mg/kg.
# Airway hyper-responsiveness in ovalbumin-sensitized animals was monitored in conscious mice by whole body plethysmography (Buxco). Mice (n=8 per group) were treated as described above for the cell measurements.
# [2] = system: mouse bone marrow-derived mast cells; test: Histamine-induced mast cell chemotaxis in vitro (transwell); format: cell-based; conditions: Mus musculus, Mast cell
# Procedure: Mast cells were differentiated from bone marrow derived from BALB/c or C57bl/6j mice. Mice were sacrificed by asphyxiation under 95% CO2 and femurs were removed. Bone marrow was aseptically isolated from the femurs. The cells (5×10^5/mL) were cultured at 37° C. with 5% CO2 in culture medium consisting of RPMI with 10% FCS, 0.1 mM non-essential amino acids, 50 μg/mL penicillin/streptomycin and 20% conditioned WEHI-3 medium. Conditioned WEHI-3 medium was prepared from WEHI-3 cells (ATCC), which were cultured in Iscoves Dulbeccos medium with 10% FCS, 4 mM L-glutamine, 1.5 g/L sodium carbonate, 0.05 μM beta-mercaptoethanol and 50 μg/mL penicillin/streptomycin. The filtered supernatant was used as the conditioned WEHI-3 medium. After 16 h in culture, the bone marrow cells were transferred to a new flask. The medium was refreshed once per week. After four weeks, the cells were tested by flow cytometry for IgE receptor and CD117 (c-kit) expression. Mast cells were incubated with anti-DNP IgE (ICN Pharmaceuticals, Costa Mesa, Calif.) or vehicle for 30 min, followed by FITC labeled anti-IgE (Pharmingen) or FITC labeled CD117 (Pharmingen) for 30 min on ice. The cultured mast cells consisted of a homogeneous population which was >99% IgE receptor positive and >99% CD117 positive. Mast cells of four to eight weeks culture time were used for experiments.
# Transwells (Costar, Cambridge, Mass.) of a pore size of […] were coated with 100 μL of 100 ng/mL human fibronectin (Sigma) for 2 h at room temperature. […] Mast cells (2×10^5/well) were added to the top chamber. The plates were incubated for 3 h at 37° C. Transwells were removed and the number of cells in the bottom chamber was counted for 60 sec using a flow cytometer.
# [3] = system: ovalbumin-sensitized mice; test: Ovalbumin-induced lung inflammation model, cell counts in BAL fluid; format: in vivo, mouse; conditions: for maximum reduction in the number of eosinophils: BAL fluid
# [4] = system: mast cells in the mouse trachea; test: Histamine-induced accumulation of mast cells in the mouse trachea in vivo; conditions: 20 mg/kg subcutaneous, 15 min prior to each histamine aerosol, FIG. 4
# [5] = system: human eosinophils; test: Histamine-induced eosinophil shape change (GAFS); format: cell-based; conditions: Eosinophil; human eosinophils; read-out: IC50 for inhibition of histamine-induced eosinophil shape change
# Procedure: Human granulocytes were isolated from human blood by a Ficoll gradient. The red blood cells were lysed with 5-10× Qiagen lysis buffer at room temperature for 5-7 min. Granulocytes were harvested and washed once with FACS buffer. The cells were resuspended at a density of 2×10^6 cells/mL in reaction buffer. […] Ten minutes later, the cells were transferred to ice and fixed with 250 μL of ice-cold fixative buffer (2% formaldehyde) for 1 min.
# [6] = biological target: human histamine H4 receptor (Homo sapiens, UniProt Q9H3N8)
# [7] = p.o., all doses of 5 mg/kg and greater, FIG. 5
# [8] = p.o., highest dose tested (50 mg/kg)
# Sequence of human histamine H4 receptor (Q9H3N8 whole entry): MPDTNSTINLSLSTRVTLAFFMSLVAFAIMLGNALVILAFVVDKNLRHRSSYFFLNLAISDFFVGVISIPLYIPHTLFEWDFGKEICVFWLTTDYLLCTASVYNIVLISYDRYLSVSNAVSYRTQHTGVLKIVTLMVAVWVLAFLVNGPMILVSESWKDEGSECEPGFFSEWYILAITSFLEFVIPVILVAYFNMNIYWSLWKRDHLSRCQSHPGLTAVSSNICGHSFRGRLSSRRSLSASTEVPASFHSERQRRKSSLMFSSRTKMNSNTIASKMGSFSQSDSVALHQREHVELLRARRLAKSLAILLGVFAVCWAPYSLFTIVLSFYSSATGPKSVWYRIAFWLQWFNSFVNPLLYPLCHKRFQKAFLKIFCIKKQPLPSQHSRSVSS
smiles,measurement,setting,value
CN1CCN(C(=O)c2nc3cc(Cl)ccc3[nH]2)CC1 [(5-Chloro-1H-benzoimidazol-2-yl)-(4-methyl-piperazin-1-yl)-methanone],airway hyper-responsiveness to methacholine (Penh),[1],reduced
same,inhibition at 1 µM,[2],84%
same,inhibition at 10 µM,[2],97%
same,macrophages in BAL fluid,"[3]; p.o., 5 mg/kg, second experiment",reduction
same,maximum reduction in the number of eosinophils,[3]; p.o.,50%
same,number of eosinophils in BAL fluid,[3]; [7],significantly reduced
same,total cell number in BAL fluid,[3]; [7],significantly reduced
same,number of macrophages in BAL fluid,[3]; [8],reduction
same,number of neutrophils in BAL fluid,[3]; [8],increase
same,number of lymphocytes in BAL fluid,"[3]; p.o., same doses which provided maximum reduction in eosinophils",significantly reduced
CN1CCN(C(=O)c2cc3cc(Cl)ccc3[nH]2)CC1 [(5-Chloro-1H-indol-2-yl)-(4-methyl-piperazin-1-yl)-methanone],number of eosinophils in BAL fluid,"[3]; s.c., 60 and 100 mg/kg, FIG. 6",significantly reduced
same,total cell number in BAL fluid,"[3]; s.c., 60 and 100 mg/kg, FIG. 6",significantly reduced
same,maximum reduction in the number of eosinophils,[3]; s.c.,50%
same,number of lymphocytes in BAL fluid,"[3]; s.c., same doses that provided reduction in eosinophils",significantly reduced
same,histamine-induced migration of mast cells into the sub-epithelial space,[4],blocked
same,IC50,[5],270 nM
CN1CCN(C(=O)c2cc3cc(Br)ccc3[nH]2)CC1 [(5-Bromo-1H-indol-2-yl)-(4-methyl-piperazin-1-yl)-methanone],Ki,[6],8 nM
